pIC50: −log10 of the molar value. Where two headings read alike, the source gives them in different places.

Assay [1] deals with H1975(L858R/T790M). Nature of the assay: H1975 cells proliferation assay. In kind it is cell-based. The settings on record: for pIC50: Homo sapiens, NCI-H1975, cell proliferation, 72 h, CellTiter Glo, read-out: H1975 IC50; for inhibition of double mutant (L858R/T790M): summary in words of Table 2. In outline: (§1)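 HCC827 (2500 cells/well) and H1975 (2000 cells/well) cells seeded in 96-well plates and exposed to compounds for 72 h at 37° C, 5% CO2; 0.5% DMSO medium as blank. Viability by CellTiter-Glo luminescence; IC50 from four-parameter logistic fit.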

Assay [2] addresses T1, Ba/F3-L858R/T790M/C797S (Homo sapiens, UniProt P00533, T790M/C797S, cells depend on it, form not given).
T1 construct: covers both
Nature of the assay: Ba/F3-L858R/T790M/C797S cells proliferation assay. The assay is classed as cell-based. Conditions: summary in words of Table 2; covers both Ba/F3 triple mutant lines. On the procedure: (§2) a) The medium was preheated in a 37 water bath in advance.
(§3) b) Remove the cryogenic vials from the liquid nitrogen tank, quickly put it into a 37° C. water bath, and completely melt it in 1 min.
(§4) c) Transfer the cell suspension to a 15 mL centrifuge tube containing 8 mL medium, centrifuge 1000 rpm, 5 min,
(§5) d) Discard the supernatant, resuspend the cells in 1 mL medium, and transfer to a 75 cm^2 flask containing 15 mL medium, culture the cells in an incubator at 37° C., 5% CO2.
(§6) a) The medium was preheated in a 37° C.; water bath in advance.
(§7) b) Collect cell to a 15 mL centrifuged tube, centrifuge at 1000 rpm for 5 min. Discard the supernatant, count, and make the cell density at 1×10^4 cells/mL, then place it in a 37° C., 5% CO2 incubator.
(§8) b) The above compound solution was diluted 1:20 times with culture medium to prepare a 10 fold working solution;
(§9) a) Take cells in log phase growth, centrifuge at 1000 rpm for 5 min, then resuspend the cells with culture medium, then count cells;
(§10) b) Cells were seeded to 96-well cell culture plate with density at 2000 cells/well;
(§11) The blank control well was a culture medium (0.5% DMSO);
(§12) b) The cells were incubated for an additional 72 h in the incubator.
(§13) a) Remove the 96-well cell culture plate and add 50 μl of CTG reagent (CellTiter Glo kit, promega, Cat #G7573).
(§14) b) Plate was shaked for 2 min and then let it cool for 10 min at room temperature.
(§15) c) The Luminescence signal value was read using a PerkinElmer reader.
(§16) Experimental Data Analysis
(§17) Data were analyzed using GraphPad Prism 6.0 software to obtain a fitted curve of compound activity.
(§18) Y=Bottom+(Top−Bottom)/(1+10^((Log IC50−X)*Hill Slope));
(§19) The cells proliferation assay results are expressed with IC50, shown as Table 2.

Assay [3] addresses T2, Ba/F3-L858R/T790M/C797S (Homo sapiens, UniProt P00533, T790M/C797S/L858R, cells depend on it).
T2 construct: BaF3 L858R/T790M/C797S IC50; other: cell proliferation, 72 h, CellTiter Glo; class symbols; numeric values
Nature of the assay: Ba/F3-L858R/T790M/C797S cells proliferation assay. In kind it is cell-based. Conditions: cell proliferation, 72 h, CellTiter Glo, read-out: BaF3 L858R/T790M/C797S IC50. On the procedure:
as §2, §3, §4, §5, §6, §7, §8, §9, §10, §11, §12, §13, §14, §15, §16, §17, §18, §19
On the technique in general: Cellular ATP, detected with luciferase, serves as a proxy for viable cell number.

Assay [4] concerns HCC827(Δ19del). Nature of the assay: HCC827 cells proliferation assay. The assay is classed as cell-based. The settings on record: Homo sapiens, HCC827, cell proliferation, 72 h, CellTiter Glo, read-out: HCC827 IC50. In outline: as §1
The target of assay [5] is Ba/F3-Δ19del/T790M/C797S (Homo sapiens, UniProt P00533, T790M/C797S, cells depend on it, form not given). The assay can be described thus: Ba/F3-Δ19del/T790M/C797S cells proliferation assay. In kind it is cell-based. The settings on record: cell proliferation, 72 h, CellTiter Glo, read-out: BaF3 Δ 19del/T790M/C797S IC50. As to the method: as §2, §3, §4, §5, §6, §7, §8, §9, §10, §11, §12, §13, §14, §15, §16, §17, §18, §19
Chain of Ba/F3-Δ19del/T790M/C797S (P00533 with tags, fused parts or gaps DEL746-750/T790M/C797S, form open): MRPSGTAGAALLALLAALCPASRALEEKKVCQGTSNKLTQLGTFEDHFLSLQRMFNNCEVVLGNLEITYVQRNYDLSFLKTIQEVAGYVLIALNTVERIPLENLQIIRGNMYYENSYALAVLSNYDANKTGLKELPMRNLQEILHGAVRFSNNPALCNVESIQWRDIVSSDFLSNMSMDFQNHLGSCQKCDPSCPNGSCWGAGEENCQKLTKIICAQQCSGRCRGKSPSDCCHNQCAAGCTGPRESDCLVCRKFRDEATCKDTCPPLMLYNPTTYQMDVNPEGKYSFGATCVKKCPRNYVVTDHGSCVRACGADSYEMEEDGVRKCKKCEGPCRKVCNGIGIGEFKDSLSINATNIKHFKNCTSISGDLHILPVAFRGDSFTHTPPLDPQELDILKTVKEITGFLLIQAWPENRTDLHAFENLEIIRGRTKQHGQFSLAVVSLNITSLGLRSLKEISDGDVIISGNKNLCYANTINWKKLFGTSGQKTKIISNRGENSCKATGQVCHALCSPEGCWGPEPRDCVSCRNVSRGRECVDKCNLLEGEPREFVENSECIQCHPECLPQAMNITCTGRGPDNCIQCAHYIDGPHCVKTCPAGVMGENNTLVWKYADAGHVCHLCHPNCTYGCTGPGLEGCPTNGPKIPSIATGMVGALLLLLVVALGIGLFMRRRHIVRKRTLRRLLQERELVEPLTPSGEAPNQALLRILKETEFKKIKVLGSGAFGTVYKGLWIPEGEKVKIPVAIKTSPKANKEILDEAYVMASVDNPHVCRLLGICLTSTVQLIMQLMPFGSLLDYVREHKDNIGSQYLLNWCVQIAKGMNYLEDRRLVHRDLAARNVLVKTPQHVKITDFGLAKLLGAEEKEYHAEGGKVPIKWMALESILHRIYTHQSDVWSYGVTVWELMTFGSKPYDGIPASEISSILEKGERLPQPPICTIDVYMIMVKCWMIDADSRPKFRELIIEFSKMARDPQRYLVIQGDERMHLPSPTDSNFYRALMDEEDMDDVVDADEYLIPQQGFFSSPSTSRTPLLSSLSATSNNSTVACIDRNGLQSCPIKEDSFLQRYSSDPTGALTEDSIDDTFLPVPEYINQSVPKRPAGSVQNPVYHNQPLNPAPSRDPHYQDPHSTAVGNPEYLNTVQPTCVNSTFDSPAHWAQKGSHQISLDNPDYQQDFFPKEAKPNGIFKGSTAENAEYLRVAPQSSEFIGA

Assay [6] concerns the target EGFR L858R (Homo sapiens, UniProt P00533, L858R). Nature of the assay: Kinase assay (mobility shift) for EGFR L858R. The assay is classed as biochemical.
Assay [7] deals with EGFR T790M/L858R (Homo sapiens, UniProt P00533, L858R/T790M). Nature of the assay: Kinase assay (mobility shift) for EGFR T790M/L858R. In kind it is biochemical.
The target of assay [8] is EGFR Δ19del/T790M/C797S (Homo sapiens, UniProt P00533, T790M/C797S, form not given). Nature of the assay: Kinase assay (mobility shift) for EGFR Δ19del/T790M/C797S. The assay is classed as biochemical. The settings on record: read-out: EGFR Δ 19del/T790M/C797S IC50.
Chain of EGFR Δ19del/T790M/C797S (P00533 with tags, fused parts or gaps DEL746-750/T790M/C797S, form open): as above

Chain of EGFR L858R (P00533 25-1210 L858R): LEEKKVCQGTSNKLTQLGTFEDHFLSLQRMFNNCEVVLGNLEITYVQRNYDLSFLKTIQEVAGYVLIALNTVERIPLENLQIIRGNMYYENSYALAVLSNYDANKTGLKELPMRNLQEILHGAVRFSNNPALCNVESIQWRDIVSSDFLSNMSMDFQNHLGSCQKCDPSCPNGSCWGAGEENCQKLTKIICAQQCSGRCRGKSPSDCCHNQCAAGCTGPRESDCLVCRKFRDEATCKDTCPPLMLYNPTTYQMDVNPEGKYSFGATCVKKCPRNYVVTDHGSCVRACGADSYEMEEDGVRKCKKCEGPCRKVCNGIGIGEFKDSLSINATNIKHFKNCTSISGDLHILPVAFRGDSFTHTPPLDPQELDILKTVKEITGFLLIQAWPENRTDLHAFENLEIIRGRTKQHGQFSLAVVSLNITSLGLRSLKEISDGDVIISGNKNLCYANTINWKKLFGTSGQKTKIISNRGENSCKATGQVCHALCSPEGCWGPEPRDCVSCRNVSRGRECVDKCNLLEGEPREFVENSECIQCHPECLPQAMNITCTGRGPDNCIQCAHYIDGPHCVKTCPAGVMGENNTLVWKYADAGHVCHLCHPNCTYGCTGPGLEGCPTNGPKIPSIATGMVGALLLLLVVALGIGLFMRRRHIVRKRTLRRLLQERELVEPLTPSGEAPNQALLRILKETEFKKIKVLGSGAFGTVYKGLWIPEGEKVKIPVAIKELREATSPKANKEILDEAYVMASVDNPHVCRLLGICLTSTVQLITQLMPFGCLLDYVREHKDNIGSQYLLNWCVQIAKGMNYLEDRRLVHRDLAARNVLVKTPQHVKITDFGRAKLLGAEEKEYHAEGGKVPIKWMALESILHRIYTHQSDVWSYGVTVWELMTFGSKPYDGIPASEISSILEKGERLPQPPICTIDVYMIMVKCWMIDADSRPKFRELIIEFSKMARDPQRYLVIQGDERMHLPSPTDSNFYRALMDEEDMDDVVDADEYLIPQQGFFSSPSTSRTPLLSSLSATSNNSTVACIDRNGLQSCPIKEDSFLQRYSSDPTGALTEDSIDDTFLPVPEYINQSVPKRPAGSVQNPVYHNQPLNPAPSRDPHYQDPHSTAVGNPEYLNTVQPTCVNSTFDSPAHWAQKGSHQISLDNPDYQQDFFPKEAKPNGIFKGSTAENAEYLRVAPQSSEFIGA
T1 sequence (P00533 whole entry T790M/C797S/L858R, form open): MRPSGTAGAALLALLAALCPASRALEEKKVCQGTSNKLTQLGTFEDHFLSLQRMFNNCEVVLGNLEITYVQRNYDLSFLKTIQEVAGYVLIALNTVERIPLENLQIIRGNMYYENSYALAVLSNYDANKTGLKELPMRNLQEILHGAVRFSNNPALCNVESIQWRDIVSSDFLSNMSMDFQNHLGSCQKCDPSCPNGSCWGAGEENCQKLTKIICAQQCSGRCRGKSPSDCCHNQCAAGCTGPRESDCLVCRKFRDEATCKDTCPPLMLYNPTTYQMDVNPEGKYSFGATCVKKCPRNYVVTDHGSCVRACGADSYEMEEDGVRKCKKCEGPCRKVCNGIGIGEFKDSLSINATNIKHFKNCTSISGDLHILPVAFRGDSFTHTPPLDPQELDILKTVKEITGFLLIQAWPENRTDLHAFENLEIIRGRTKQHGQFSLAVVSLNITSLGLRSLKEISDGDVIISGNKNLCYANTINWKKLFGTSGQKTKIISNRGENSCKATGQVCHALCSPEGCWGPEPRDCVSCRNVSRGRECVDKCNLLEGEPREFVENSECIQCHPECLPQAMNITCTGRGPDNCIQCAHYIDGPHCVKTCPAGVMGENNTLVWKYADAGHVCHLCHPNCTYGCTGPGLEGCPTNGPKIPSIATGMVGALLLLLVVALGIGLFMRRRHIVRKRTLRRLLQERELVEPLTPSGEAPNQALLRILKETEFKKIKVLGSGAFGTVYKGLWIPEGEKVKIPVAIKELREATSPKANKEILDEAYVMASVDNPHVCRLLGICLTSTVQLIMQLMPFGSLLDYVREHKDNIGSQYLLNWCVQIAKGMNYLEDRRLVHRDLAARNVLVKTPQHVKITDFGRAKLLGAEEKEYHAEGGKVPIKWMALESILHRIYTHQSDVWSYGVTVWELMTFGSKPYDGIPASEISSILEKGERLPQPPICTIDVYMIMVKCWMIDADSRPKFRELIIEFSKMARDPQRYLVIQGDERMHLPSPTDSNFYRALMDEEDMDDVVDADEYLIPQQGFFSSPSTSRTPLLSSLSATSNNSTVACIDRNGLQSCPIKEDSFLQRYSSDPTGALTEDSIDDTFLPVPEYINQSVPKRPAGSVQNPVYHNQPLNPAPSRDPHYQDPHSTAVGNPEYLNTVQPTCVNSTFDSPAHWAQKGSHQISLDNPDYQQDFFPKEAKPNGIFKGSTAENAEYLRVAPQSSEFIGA

For `CCN1CC2(C1)CN(c1ccc(Nc3ncc(Cl)c(Nc4ccccc4P(C)(C)=O)n3)cc1C)C2` [Comparative compound A, (2-((5-chloro-2-((4-(6-ethyl-2,6-diazaspiro[3.3]heptan-2-yl)-3-methylphenyl)amino)pyrimidin-4-yl)amino)phenyl)dimethylphosphine oxide, reference compound], the pIC50 in assay [1] (numeric values) is 7.21; in assay [4] (numeric values) it was 7.05. In addition, the “inhibition of double mutant (L858R/T790M)” value (shortened to “inhibition of double mutant”) in assay [1] is “relatively low inhibition”. Also, the “inhibition of triple mutant (L858R/T790M/C797S or Δ19del/T790M/C797S)” value in assay [2] is given as “higher inhibition”. Also, the GI50 in assay [3] (class symbols) and in assay [5] (class symbols) was < 10 nM in each case.

For `COc1cc(N2CCC(N3CCN(C)CC3)CC2)c(C)cc1Nc1ncc(Br)c(Nc2ccc3nccnc3c2P(C)(C)=O)n1` [Comparative compound C, (6-((5-bromo-2-((2-methoxy-5-methyl-4-(4-(4-methylpiperazin-1-yl)piperidin-1-yl)phenyl)amino)pyrimidin-4-yl)amino)quinoxalin-5-yl)dimethylphosphine oxide, reference compound], the pIC50 in assay [1] (numeric values) was 7.15. The “inhibition of double mutant” value in assay [1] is reported as “relatively low inhibition”. Moreover, in assay [2], the “inhibition of triple mutant (L858R/T790M/C797S or Δ19del/T790M/C797S)” value is on record as “higher inhibition”. Further, the GI50 in assay [3] (numeric values) was 16.8 nM; in assay [5] (numeric values), 9.6 nM.

Turning to `CCc1cc(Nc2ncc(Br)c(Nc3ccc4nccnc4c3P(C)(C)=O)n2)c(OC)cc1N1CCC(N2CCN(C)CC2)CC1` [Comparative compound D, (6-((5-bromo-2-((5-ethyl-2-methoxy-4-(4-(4-methylpiperazin-1-yl)piperidin-1-yl)phenyl)amino)pyrimidin-4-yl)amino)quinoxalin-5-yl)dimethylphosphine oxide, reference compound], in assay [1] (numeric values), the pIC50 is 7.08. Moreover, the “inhibition of double mutant” value in assay [1] is “relatively low inhibition”. In addition, the “inhibition of triple mutant (L858R/T790M/C797S or Δ19del/T790M/C797S)” value in assay [2] is “higher inhibition”. The GI50 in assay [3] (numeric values) was determined as 12.9 nM; in assay [5] (numeric values), 5.7 nM.

Take `C=CC(=O)Nc1cc(Nc2ncc(Cl)c(Nc3ccccc3P(C)(C)=O)n2)ccc1N1CCC(N2CCN(C)CC2)CC1` [Compound 16, N-(5-((5-chloro-4-((2-(dimethylphosphoryl)phenyl)amino)pyrimidin-2-yl)amino)-2-(4-(4-methylpiperazin-1-yl)piperidin-1-yl)phenyl)acrylamide]: the pIC50 in assay [1] (class symbols) was > 8.00; in assay [4] (class symbols) it was 7.30 to 8.00; in assay [6], > 8.00; in assay [7], > 8.00; in assay [8], > 8.00. Besides, the GI50 in assay [3] (class symbols) and in assay [5] (class symbols) was 10 to 50 nM each time.

`C=CC(=O)Nc1cc(Nc2ncc(Cl)c(Nc3ccccc3P(C)(C)=O)n2)ccc1N1CCN2CCC[C@H]2C1` [Compound 17, (S)—N-(5-((5-chloro-4-((2-(dimethylphosphoryl)phenyl)amino)pyrimidin-2-yl)amino)-2-(hexahydropyrrolo[1,2-a]pyrazin-2(1H)-yl)phenyl)acrylamide]: the pIC50 is 7.30 to 8.00 in assay [1] (class symbols); 7.30 to 8.00 in assay [4] (class symbols); > 8.00 in assay [6]; > 8.00 in assay [7]; > 8.00 in assay [8]. Moreover, the GI50 in assay [3] (class symbols) and in assay [5] (class symbols) was 10 to 50 nM throughout.

With `C=CC(=O)Nc1cc(Nc2ncc(Cl)c(Nc3ccccc3P(C)(C)=O)n2)ccc1N(C)CCN1CCCC1` [Compound 18, N-(5-((5-chloro-4-((2-(dimethylphosphoryl)phenyl)amino)pyrimidin-2-yl)amino)-2-(methyl(2-(pyrrolidin-1-yl)ethyl)amino)phenyl)acrylamide], the pIC50 in assay [1] (class symbols), in assay [4] (class symbols), in assay [6], in assay [7] and in assay [8] was > 8.00 in each case. Further, the GI50 in assay [3] (class symbols) and in assay [5] (class symbols) was 10 to 50 nM in each case.

As to `C=CC(=O)Nc1cc(Nc2ncc(Cl)c(Nc3ccccc3P(C)(C)=O)n2)ccc1N1CCC2(CC1)CC(N(C)C)C2` [Compound 36, N-(5-((5-chloro-4-((2-(dimethylphosphoryl)phenyl)amino)pyrimidin-2-yl)amino)-2-(2-(dimethylamino)-7-azaspiro[3.5]nonan-7-yl)phenyl)acrylamide], the pIC50 in assay [1] (class symbols), in assay [4] (class symbols), in assay [6], in assay [7] and in assay [8] was > 8.00 throughout. In addition, the GI50 in assay [3] (class symbols) and in assay [5] (class symbols) was < 10 nM in each case.
